According to PubChem BioAssay AID276 (DTP/NCI, 2004):
“And” between values parts separate entries of the source, which are not always exact repeats. Equal values may be shown once. Inconclusive results and toxic doses are left out. How the source made its calls: active means survival T/C of 150% or more; inactive means T/C below 125% in these data.

System: B6C3F1 mice, Lewis lung carcinoma iv, survival T/C
Test: NCI In Vivo Anticancer Drug Screen. Data for tumor model Lewis Lung Carcinoma (intravenous) in B6C3F1 mice
Details: endpoint: median survival time, higher = longer survival
Method in brief: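 Antitumor activity is assessed in tumor-bearing mice by comparing survival after compound treatment against vehicle-treated controls, reported as a T/C ratio.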

[1] = dose: 12.5 mg/kg/injection, schedule: Q01DX009 (ip), vehicle: Klucel (hydroxypropylcellulose) (HPC)
[2] = dose: 25.0 mg/kg/injection, schedule: Q01DX009 (ip), vehicle: Klucel (hydroxypropylcellulose) (HPC)
[3] = dose: 50.0 mg/kg/injection, schedule: Q01DX009 (ip), vehicle: Klucel (hydroxypropylcellulose) (HPC)
[4] = dose: 100.0 mg/kg/injection, schedule: Q01DX009 (ip), vehicle: Klucel (hydroxypropylcellulose) (HPC)
[5] = dose: 200.0 mg/kg/injection, schedule: Q01DX009 (ip), vehicle: Klucel (hydroxypropylcellulose) (HPC)
[6] = dose: 400.0 mg/kg/injection, schedule: Q01DX009 (ip), vehicle: Klucel (hydroxypropylcellulose) (HPC)
[7] = dose: 3.12 mg/kg/injection, schedule: Q01DX009 (ip), vehicle: saline with Tween-80
[8] = dose: 25.0 mg/kg/injection, schedule: Q01DX009 (ip), vehicle: saline
[9] = dose: 50.0 mg/kg/injection, schedule: Q01DX009 (ip), vehicle: saline
[10] = dose: 6.25 mg/kg/injection, schedule: Q01DX009 (ip), vehicle: saline with Tween-80
[11] = dose: 12.5 mg/kg/injection, schedule: Q01DX009 (ip), vehicle: saline with Tween-80
[12] = dose: 25.0 mg/kg/injection, schedule: Q01DX009 (ip), vehicle: saline with Tween-80
[13] = dose: 50.0 mg/kg/injection, schedule: Q01DX009 (ip), vehicle: saline with Tween-80
[14] = dose: 100.0 mg/kg/injection, schedule: Q01DX009 (ip), vehicle: saline with Tween-80
[15] = dose: 200.0 mg/kg/injection, schedule: Q01DX009 (ip), vehicle: saline with Tween-80
[16] = dose: 12.5 mg/kg/injection, schedule: Q01DX009 (ip), vehicle: saline

Measured: T/C

OCC1OC(n2cnc3c(NO)ncnc32)C(O)C1O (stereo not drawn)
inactive: [1] 102 % of control | [2] 97 % of control | [3] 109 % of control | [4] 105 % of control | [5] 110 % of control | [6] 109 % of control

Cc1cc(O)c2c(c1O)C(=O)C13C(=C2O)C(=O)C2C(O)C1C1C(O)C3C(=O)C3=C(O)c4c(O)cc(C)c(O)c4C(=O)C321 (stereo not drawn)
inactive: dose: 0.78 mg/kg/injection, schedule: Q01DX009 (ip), vehicle: saline with Tween-80 100 % of control | dose: 1.56 mg/kg/injection, schedule: Q01DX009 (ip), vehicle: saline with Tween-80 91 % of control | [7] 90 % of control

C=C(C)C1C2CC3(C)C4(CO4)C4OC4C3(O)C1C(=O)O2 (stereo not drawn)
inactive: dose: 0.25 mg/kg/injection, schedule: Q01DX008 (ip), vehicle: Klucel (hydroxypropylcellulose) (HPC) 108 % of control | dose: 0.5 mg/kg/injection, schedule: Q01DX008 (ip), vehicle: Klucel (hydroxypropylcellulose) (HPC) 102 % of control | dose: 1.0 mg/kg/injection, schedule: Q01DX008 (ip), vehicle: Klucel (hydroxypropylcellulose) (HPC) 108 % of control | dose: 2.0 mg/kg/injection, schedule: Q01DX008 (ip), vehicle: Klucel (hydroxypropylcellulose) (HPC) 105 % of control

CNC(=O)O/N=C(\CN=[N+]=[N-])C(C)(C)C
inactive: dose: 0.13 mg/kg/injection, schedule: Q01DX009 (ip), vehicle: saline 102 % of control | dose: 0.25 mg/kg/injection, schedule: Q01DX009 (ip), vehicle: saline 102 % of control | dose: 0.5 mg/kg/injection, schedule: Q01DX009 (ip), vehicle: saline 106 % of control | dose: 1.0 mg/kg/injection, schedule: Q01DX009 (ip), vehicle: saline 105 % of control

O=c1oc2c(O)c(O)cc3c(=O)oc4c(O)c(O)cc1c4c23
inactive: [1] 105 % of control | [2] 105 % of control | [3] 106 % of control | [4] 110 % of control

O=C1CCC(=O)N1CO
inactive: [8] 94 % of control | [9] 98 % of control | dose: 100.0 mg/kg/injection, schedule: Q01DX009 (ip), vehicle: saline 94 % of control | dose: 200.0 mg/kg/injection, schedule: Q01DX009 (ip), vehicle: saline 103 % of control | dose: 400.0 mg/kg/injection, schedule: Q01DX009 (ip), vehicle: saline 106 % of control

CCCCCCCCCCCCSC1=C(Cl)C(=O)C(OC)=C(OC)C1=O
inactive: [7] 99 % of control | [10] 94 % of control | [11] 99 % of control | [12] 94 % of control | [13] 96 % of control

CN=C(NC#N)NCCSCc1nc[nH]c1C
inactive: dose: 12.0 mg/kg/injection, schedule: Q01DX009 (ip), vehicle: Klucel (hydroxypropylcellulose) (HPC) 104 % of control | [2] 100 % of control | [3] 103 % of control | [4] 99 % of control | [5] 105 % of control | [6] 95 % of control

C1CC[N-]CC1.[Cl][Pt+2][Cl].[NH-]C1CC1
inactive: dose: 1.56 mg/kg/injection, schedule: Q01DX009 (ip), vehicle: water 106 % of control | dose: 3.12 mg/kg/injection, schedule: Q01DX009 (ip), vehicle: water 110 % of control | dose: 6.25 mg/kg/injection, schedule: Q01DX009 (ip), vehicle: water 107 % of control and 109 % of control | dose: 12.5 mg/kg/injection, schedule: Q01DX009 (ip), vehicle: water 102 % of control and 120 % of control

BrC[P+](CBr)(CBr)CBr
inactive: [11] 93 % of control | [12] 102 % of control | [13] 97 % of control | [14] 97 % of control | [15] 89 % of control | dose: 400.0 mg/kg/injection, schedule: Q01DX009 (ip), vehicle: saline with Tween-80 95 % of control

Nc1nc(=S)c2ncn(C3CC(O)C(CO)O3)c2[nH]1 (stereo not drawn)
inactive: dose: 12.5 mg/kg/injection, schedule: Q01DX009 (ip), vehicle: suspension in saline 113 % of control | dose: 25.0 mg/kg/injection, schedule: Q01DX009 (ip), vehicle: suspension in saline 100 % of control | dose: 50.0 mg/kg/injection, schedule: Q01DX009 (ip), vehicle: suspension in saline 108 % of control | dose: 100.0 mg/kg/injection, schedule: Q01DX009 (ip), vehicle: suspension in saline 103 % of control | dose: 200.0 mg/kg/injection, schedule: Q01DX009 (ip), vehicle: suspension in saline 95 % of control | dose: 400.0 mg/kg/injection, schedule: Q01DX009 (ip), vehicle: suspension in saline 90 % of control

CCC1OC(OC)C=CC1=O (stereo not drawn)
inactive: [16] 97 % of control | [9] 97 % of control

O=S(=O)(SC(S(=O)(=O)c1ccccc1)S(=O)(=O)c1ccccc1)c1ccccc1
inactive: [4] 100 % of control | [5] 102 % of control | [6] 98 % of control

COC(=O)Nc1nc2ccc(C3(c4ccc(F)cc4)OCCO3)cc2[nH]1
inactive: dose: 1.56 mg/kg/injection, schedule: Q01DX009 (ip), vehicle: saline 97 % of control | dose: 3.12 mg/kg/injection, schedule: Q01DX009 (ip), vehicle: saline 106 % of control | dose: 6.25 mg/kg/injection, schedule: Q01DX009 (ip), vehicle: saline 102 % of control | [16] 104 % of control | [8] 117 % of control

c1ccc(P(CCNCCP(c2ccccc2)c2ccccc2)c2ccccc2)cc1
inactive: [12] 104 % of control | [13] 97 % of control

CC(C)N1CC(COc2cccc3ccccc23)OP1(=O)N(CCCl)CCCl (stereo not drawn)
inactive: dose: 1.56 mg/kg/injection, schedule: Q01DX009 (ip), vehicle: distilled water + Tween-80 98 % of control | dose: 3.13 mg/kg/injection, schedule: Q01DX009 (ip), vehicle: distilled water + Tween-80 96 % of control | dose: 6.25 mg/kg/injection, schedule: Q01DX009 (ip), vehicle: distilled water + Tween-80 101 % of control | dose: 12.5 mg/kg/injection, schedule: Q01DX009 (ip), vehicle: distilled water + Tween-80 102 % of control | dose: 25.0 mg/kg/injection, schedule: Q01DX009 (ip), vehicle: distilled water + Tween-80 102 % of control | dose: 50.0 mg/kg/injection, schedule: Q01DX009 (ip), vehicle: distilled water + Tween-80 95 % of control | dose: 100.0 mg/kg/injection, schedule: Q01DX009 (ip), vehicle: distilled water + Tween-80 106 % of control | dose: 200.0 mg/kg/injection, schedule: Q01DX009 (ip), vehicle: distilled water + Tween-80 90 % of control | dose: 400.0 mg/kg/injection, schedule: Q01DX009 (ip), vehicle: distilled water + Tween-80 90 % of control

[Cl][Pt+2][Cl].[NH-]C1CCC1.[NH2-]
inactive: dose: 0.75 mg/kg/injection, schedule: Q01DX009 (ip), vehicle: saline 101 % of control | dose: 3.0 mg/kg/injection, schedule: Q01DX009 (ip), vehicle: saline 111 % of control | dose: 6.0 mg/kg/injection, schedule: Q01DX009 (ip), vehicle: saline 124 % of control

CC1=C[S+](c2ccccc2)c2cccc3cc4ccccc4c1c23 (stereo not drawn)
inactive: dose: 0.12 mg/kg/injection, schedule: Q01DX009 (ip), vehicle: saline with Tween-80 106 % of control | dose: 0.25 mg/kg/injection, schedule: Q01DX009 (ip), vehicle: saline with Tween-80 113 % of control | dose: 0.5 mg/kg/injection, schedule: Q01DX009 (ip), vehicle: saline with Tween-80 95 % of control | dose: 1.0 mg/kg/injection, schedule: Q01DX009 (ip), vehicle: saline with Tween-80 100 % of control | dose: 2.0 mg/kg/injection, schedule: Q01DX009 (ip), vehicle: saline with Tween-80 106 % of control | dose: 4.0 mg/kg/injection, schedule: Q01DX009 (ip), vehicle: saline with Tween-80 101 % of control

O=C1NC(=O)C2C3C=CC(C12)C1C2C(=O)NC(=O)C2C31 (stereo not drawn)
inactive: [11] 96 % of control and 105 % of control | [12] 95 % of control and 102 % of control | [13] 99 % of control | [14] 96 % of control | [15] 91 % of control

CCCCCCCCCCCCCC#CC(=O)O
inactive: [7] 97 % of control | [10] 93 % of control | [11] 101 % of control | [12] 89 % of control | [13] 93 % of control
